Results on six compounds are retold here after publication PMC7350133 (Heliyon, 2020).

Like-named read-outs stand apart in the source and are kept apart here.

Test [1] has as its system yeast alpha glucosidase enzyme. Conditions: ref Gong et al., 2017, Peng et al., 2016, Rouzbehan et al.; cited from earlier work.
Test [2] is described as follows: DPPH free radical scavenging assay. The note with it: mean ± SD (n = 3). Background: Loss of DPPH colour is used to gauge radical scavenging.
A short description of test [3]: ABTS free radical scavenging assay. Conditions: mean ± SD (n = 3).
The target of the next test is alpha glucosidase. The note with it: cited from earlier work.

With `C[C@H]1O[C@H](O[C@H]2[C@H](O)[C@@H](O)[C@@H](O[C@H]3[C@H](O)[C@@H](O)C(O)O[C@@H]3CO)O[C@@H]2CO)[C@H](O)[C@@H](O)[C@@H]1N[C@H]1C=C(CO)[C@@H](O)[C@H](O)[C@H]1O` (stereo partly shown) [Acarbose, acarbose], the type of inhibition result in test [1] is recorded as “competitive”. Turning to `COc1ccc([C@@H]2CC(=O)c3c(O)cc(O)cc3O2)cc1O` [hesperetin], the type of inhibition entry in test [1] was “mixed type”. For the compound `O=C1O[C@H]([C@@H](O)CO)C(O)=C1O` [Ascorbic acid], the “Antioxidant activity (IC50 in μg/mL) DPPH Assay” value in test [2] came out at 5.1 ± 0.1 µg/mL. In addition, in test [3], the “Antioxidant activity (IC50 in μg/mL) ABTS Assay” value was found to be 3.9 ± 0.2 µg/mL. In the case of `O=c1c2cc(O)c(O)cc2oc2cc(O)cc(O)c12` [norathyriol], the “AGI IC50” value on alpha glucosidase (ref Gu et al., 2019) was 4.22 ± 0.19 µg/mL. Regarding `O=c1c(O)c(-c2ccc(O)cc2)oc2cc(O)cc(O)c12` [kaempferol], the type of inhibition entry in test [1] is on record as “mixed type”. Take `C/C=C(\C)CC/C=C(\C)C(=O)OCC(C)(C)CC1=C(O)C(=O)c2ccccc2C1=O` [rhinacanthin C]: the “AGI IC50” value at alpha glucosidase (ref Shah et al., 2017) is 22.6 ± 0.6 µg/mL.
